Data on five molecules can be found in patent publication US20100196476A1, “PROCESS FOR THE PREPARATION AND PHARMACEUTICAL FORMULATIONS FOR 4-QUINOLINONES AND QUINOLINES AND USE THEREOF” (FUNDACAO UNIVERSIDADE FEDERAL DE SAO CARLOS, priority 2007, published 2010).

The subject of assay [1] is coagulant serine proteases. As to the kind of experiment: initial screening, coagulant activity of snake venoms. As to conditions: first screening assay, FIG. 2. The format is biochemical, Bothrops jararacussu, B. moojeni, B. alternatus. Here is the method: (§1) This screening was for the venoms of the Bothrops jararacussu, B. moojeni, B. alternatus and B. jararacussu BjussuMP-I snakes to determine promising compounds.
(§2) Aliquots of plasma (0.2 mL) were incubated with venom or venom/inhibitor (50 μL) in varying proportions (m/m) during a period of 30 minutes at 37° C. and the coagulation time was verified. The control tubes included plasma incubated with phosphate buffered saline solution (PBS)+calcium or dimethyl sulphoxide or only the compound.

Assay [2] has as its system haemorrhagic metalloprotease of the venoms. Kind of assay: initial screening, haemorrhagic metalloprotease of the venoms. Further details: species or system Bothrops jararacussu, B. moojeni, B. alternatus. As to conditions: first screening assay, FIG. 2.
Text: as §1

For assay [3], the system named is venom of Bothrops and the isolated metalloprotease. As to the kind of experiment: haemorrhage induced by Bothrops venoms and isolated metalloprotease (FIG. 3A). The format is in vivo. As to conditions: venom of Bothrops and Crotalus snakes and isolated metalloprotease. Here is the method:
FIG. 3A: Effect of compound 2 on the haemorrhage induced by the venom of Bothrops and the isolated metalloprotease. FIG. 3B: Effect of compound 2 on the proteolytic activity induced by the venom of Bothrops and the isolated metalloprotease. FIG. 3C: Effect of the coagulant activity of compound 2 induced by the venoms of Bothrops and Crotalus and the isolated serine protease. The results are expressed by the mean±standard deviation (SD) (n=6).
Therefore, further assays were performed to determine the efficiency of compound 2 for various other activities. FIG. 3A presents the effects of 2 on haemorrhages induced by the different venoms of the Bothrops genus snakes and an isolated metalloprotease.

The subject of assay [4] is snake venoms and isolated metalloprotease. As to the kind of experiment: proteolytic activity in casein (FIG. 3B). The format is biochemical, Bothrops. As to conditions: induced by snake venoms and isolated metalloprotease.
The target in assay [5] is Class I metalloprotease neuwiedase (Bothrops pauloensis, UniProt Q9I9R4). In kind it is biochemical, B. neuwiedi.
Chain of Class I metalloprotease neuwiedase (Q9I9R4 whole entry, looked up): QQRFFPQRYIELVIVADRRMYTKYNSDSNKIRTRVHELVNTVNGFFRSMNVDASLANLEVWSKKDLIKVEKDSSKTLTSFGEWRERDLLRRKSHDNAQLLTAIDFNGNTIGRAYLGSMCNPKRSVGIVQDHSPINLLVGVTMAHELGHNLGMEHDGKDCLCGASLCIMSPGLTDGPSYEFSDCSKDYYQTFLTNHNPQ
Assay [6] has as its system snake venoms and isolated serine protease. As to the kind of experiment: coagulant activity in human plasma (FIG. 3C). In kind it is biochemical, Bothrops and Crotalus. To be noted: induced by snake venoms and isolated serine protease. On the procedure:
as §2

In assay [7] the test system is venom of B. jararacussu (BjussuSP-I). Kind of assay: coagulant activity, B. jararacussu venom. The format is biochemical. To be noted: FIG. 3C. On the procedure: as §2
Assay [8] relates to venom of C. d. terrificus (gyroxin). Kind of assay: coagulant activity, C. d. terrificus venom. In kind it is biochemical. To be noted: FIG. 3C. Here is the method: as §2
Assay [9] concerns venom of B. jararacussu, BjussuSP-I and BjussuMP-I. Kind of assay: fibrinogenolytic activity on bovine fibrinogen, SDS-PAGE (FIG. 4A). In kind it is biochemical. To be noted: enzymes incubated with inhibitor 30 minutes at 37° C., 1:10 by mass. Here is the method: Lanes: 1—Fibrinogen+venom of B. jararacussu (4 μg)+2 (40 μg); 2—Fibrinogen+enzyme BjussuSP-I (2 μg)+2 (20 μg); 3—Fibrinogen+BjussuMP-I (2 μg)+2 (20 μg); 4—Fibrinogen control. The enzymes were incubated together with 2 for 30 minutes at 37° C. The results are expressed by the mean±S.D (n=3). (B): Interaction between the venom of the B. jararacussu snake and 2. Samples containing venom/toxin (20 μg) and the […] (600 μg) were incubated for 30 minutes at 37° C. at a ratio of 1:30 (w/w). Lanes: 1—BthTX-I+2; 2—BthTX-II+2; 3—venom of B. jararacussu+2; 4—only BthTX-I; 5—only BthTX-II; 6—only the venom of B. jararacussu.

For assay [10], the system named is venoms and isolated PLA2s. As to the kind of experiment: myotoxic activity in mice (plasma CK). In kind it is in vivo. To be noted: induced by venoms of B. jararacussu and C. durissus terrificus and isolated PLA2s.
In assay [11] the test system is venoms and isolated PLA2s. As to the kind of experiment: oedema inducing activity in mice. In kind it is in vivo. As to conditions: induced by venoms of B. jararacussu and C. durissus terrificus and isolated PLA2s. Here is the method: The oedemas are induced by the direct injection of venom (20 μg) and purified proteins (20 μg) into the right leg of male Swiss mice (18-22 g). Inhibition activity is verified incubating the venom or isolated protein with the inhibitor in varying concentrations (m/m). The control groups are injected with 50 μL of phosphate buffered saline solution (PBS, pH=7.2) alone, dimethyl sulphoxide (DMSO) or the compounds. Oedema progression is assessed through measurement of the […] using a pachymeter (Mitutoyo, Japan) at intervals of 30 and 60 minute after injection.

Assay [12] relates to venoms and isolated PLA2s. As to the kind of experiment: phospholipase A2 activity (indirect haemolytic). The format is biochemical. To be noted: induced by venoms of B. jararacussu and C. durissus terrificus and isolated PLA2s. Here is the method: (§3) Indirect haemolytic activity is tested using agarose-erythrocyte-egg yolk gel as a substrate. The compounds are tested following incubation with the pure venoms or PLA2 in varying ratios (m/m).

Assay [13] deals with basic Asp49 PLA2s (BthTX-II and CB). As to the kind of experiment: phospholipase A2 activity, basic Asp49 PLA2s. The format is biochemical, B. jararacussu and C. d. terrificus. To be noted: compared with pure venoms and acid isoform Asp49 BthA-1-PLA2, FIG. 5C. On the procedure:
as §3

Turning to `O=c1cc(CO)[nH]c2ccccc12` [Compound 1, 2-hydroxymethyl-1,4-dihydro-4-quinolinone], in assay [1], the “inhibition of coagulant serine proteases” value is recorded as “partial inhibition”.

For `COc1ccc2[nH]c(CO)cc(=O)c2c1` [Compound 2, 2-hydroxymethyl-6-methoxy-1,4-dihydro-4-quinolinone], in [1], the “inhibition of coagulant serine proteases” value was “partial inhibition”. The “inhibition of the haemorrhagic metalloprotease of the venoms” value in [2] is recorded as “potential of inhibiting”. Besides, the “effect on haemorrhages induced by venom” value in [3] is on record as “inhibits”. Moreover, the “inhibition of proteolytic activity on casein” value in assay [4] is “significantly inhibits”. Also, in [5], the “inhibition of proteolytic activity” value is on record as “approximately 67%”. Besides, the “inhibition of coagulant activity in human plasma” value in assay [6] was “significantly inhibits”. For the same molecule, the action on coagulation result in [7] and in assay [8] was “powerful coagulation action” in each case. The “inhibition of fibrinogenolytic activity” value in assay [9] is reported as “inhibition”. Moreover, the effect on myotoxicity entry in [10] was “partially reduced”. For the same molecule, the effect on oedema result in assay [11] was “partially reduced”. Further, the “effect on activity for phospholipase” value in [12] was “partially reduced”. Further, the “neutralising PLA2 activity” value in assay [13] is reported as “more efficient”.

With `CCOc1cc(CO)nc2ccc(OC)cc12` [Compound 10, 4-ethoxy-2-hydroxymethyl-6-methoxyquinoline], in [1], the “inhibition of coagulant serine proteases” value is listed as “partial inhibition”.

Take `CCOCc1cc(OCC)c2cc(OC)ccc2n1` [Compound 11, 4-ethoxy-2-ethoxymethyl-6-methoxyquinoline]: in assay [1], the “inhibition of coagulant serine proteases” value is recorded as “partial inhibition”.

Regarding `O=C(O)c1cn(C2CC2)c2cc(N3CCNCC3)c(F)cc2c1=O` [Compound 13, 1-ciclopropyl-6-fluoro-1,4-dihydro-4-oxo-7-(1-piperazinyl)-3-quinolinecarboxylic acid, reference compound], the “inhibition of coagulant serine proteases” value in assay [1] is “partial inhibition”.
